Format in all cases: in vivo
The subject of test [1] is Nilaparvata lugens. As to the kind of experiment: Insecticidal test on Nilaparvata lugens (rice sheaths soaked). The settings on record: 144 h, 500 ppm solution, 3rd-instar larvae, 6 days after, 25° C.
A further test concerns Spodoptera litura. As to the kind of experiment: Insecticidal test on Spodoptera litura (cabbage leaves soaked). The settings on record: 144 h, 500 ppm solution, 3rd-instar larvae, 6 days after, 25° C.
The test system of a further test is Ctenocephalides felis. Kind of test: Test on the effect on Ctenocephalides felis (thin film in glass container). The settings on record: 96 h, application dose 10 μg/cm^2, adults, 4 days after release, 25° C.
The subject of test [2] is Frankliniella occidentalis. As to the kind of experiment: Insecticidal activity on Frankliniella occidentalis (kidney bean leaf spray). The settings on record: 48 h, 500 ppm solution sprayed (2.5 mg/cm^2), larvae on kidney bean leaves, 2 days after. The method, then: In styrol cups having an inner diameter of 7 cm, wet filter paper was laid, kidney bean leaves cut into a 3 cm square were laid on the paper, and each leaf was inoculated with 20 larvae of Frankliniella occidentalis. […] 2.5 ml of the solutions were sprayed from a rotary spray tower into the styrol cups (2.5 mg/cm^2).
2 Days after, dead insects were counted, and insect damage on kidney bean leaves was examined. The mortality was calculated by using the same equation as in Test Example 1.
The insect damage degree was evaluated as follows. 1: 0 to 20% insect damage, 2: 20 to 50% insect damage, 3: 50 to 70% insect damage, and 4: 70% or higher insect damge. The test was carried out in duplicate.

The next test relates to Bemisia argentifolii. As to the kind of experiment: Insecticidal test on Bemisia argentifolii (kidney bean leaf spray). The settings on record: 120 h, 500 ppm solution sprayed (2.5 mg/cm^2), adults on kidney bean leaves, 5 days after, 25° C. Here is the method:
In styrol cups having an inner diameter of 7 cm, wet filter paper was laid, and kidney bean leaves cut to 3 cm were laid on the paper. […] The leaves were dried in air, and adults of Bemisia argentifolii were released in the cups, and the cups were covered with lids and placed in an incubator at 25° C. 5 Days after, dead insects were counted, and the mortality was calculated by using the same equation as in Test Example 1. The test was carried out in duplicate.

Another test concerns Rhipicephalus sanguineus. As to the kind of experiment: Test on the effect on Rhipicephalus sanguineus (thin film in glass container). The settings on record: 96 h, application dose 10 μg/cm^2, protonymphs, 4 days after release, 25° C. Here is the method: 350 μl of the solutions were applied to the bottoms and the side walls of glass containers with an inner wall surface area of 35 cm^2, and acetone was volatilized to prepare thin films of the compounds on the inner walls of the glass containers. Since the inner wall surface area of each glass container was 35 cm^2, the application dose was 10 μg/cm^2.
To each glass container, five protonymphs (male and female) of Rhipiceohalus sanguineus were released, and the containers were covered with lids and placed in an incubator at 25° C. 4 Days after the release of the ticks, dead ticks were counted, and the mortality was calculated by using the same equation as in Test Example 1.

Test [3] relates to Plutella xylostella. Kind of test: Insecticidal test on Plutella xylostella (cabbage leaves soaked). The settings on record: 144 h, 500 ppm solution, 3rd-instar larvae, 6 days after, 25° C.
A further test concerns Myzus persicae. As to the kind of experiment: Insecticidal test on Myzus persicae (cabbage leaf spray). The settings on record: 144 h, 500 ppm solution sprayed (2.5 mg/cm^2), apterous adults on cabbage leaves, 6 days after, 25° C.
The subject of test [4] is Plutella xylostella. Kind of test: Soil irrigation test on Plutella xylostella. The settings on record: 144 h, 500 ppm solution, 10 ml soil irrigation of cabbage seedlings, leaves picked 5 days after, 3rd-instar larvae, 6 days after. The method, then:
The soil around the bases of cabbage seedlings (at the 2.5-leaf stage) planted in plastic cups was irrigated with 10 ml of the solutions. After the irrigation, the cabbage seedlings were placed in a greenhouse. 5 Days after the irrigation, leaves of cabbage were picked and placed in dishes. In each dish, five 3rd-instar larvae of Plutella xylostella were released, and the dishes were covered with lids and placed in an incubator at 25° C. 6 Days after, dead insects in the dishes were counted, and the mortality was calculated by using the same equation as in Test Example 1. The test was carried out in duplicate.

Test [5] relates to Nilaparvata lugens. Kind of test: Systemic insecticidal test on Nilaparvata lugens (rice seedling root dip). The settings on record: 20 ppm solution, rice seedling roots dipped 7 days, 3rd-instar larvae, 6 days after release, 25° C. Here is the method:
7 Days after, the rice seedlings were picked and put in test tubes, and in each tube, five 3rd-instar larvae of Nilaparvata lugens were released, and the tubes were capped with sponge and placed in an incubator at 25° C. 6 Days after the release of the insects, dead insects were counted, and the mortality (%) (the number of dead insects÷the number of released insects×100) was calculated. The test was carried out in duplicate.

Molecules are shown by their SMILES. Some results are limits rather than exact numbers.

Data on 3 molecules can be found in US10882869B2, “Condensed heterocyclic compounds and pesticides” (NISSAN CHEMICAL CORPORATION, priority 2015, dated 2021).

As usually defined, the mortality is the share of the test organisms that died. Read a low mortality as a weak lethal effect. As to `CCS(=O)(=O)c1c(-c2nc3cc(C(F)(F)F)cnc3n2C)sc2ccc(C(F)(F)F)cc12` [3-1-002a, 2-[3-(ethylsulfonyl)-5-(trifluoromethyl)benzo[b]thiophen-2-yl]-3-methyl-6-(trifluoromethyl)-3H-imidazo[4,5-b]pyridine], the mortality at 500 ppm in the test on Nilaparvata lugens [1] is at least 90%; in the test with Spodoptera litura it was at least 90%; in test [2], at least 50%; in the test with Bemisia argentifolii, at least 90%; with Plutella xylostella [3], at least 90%; in the test with Myzus persicae, at least 90%. The mortality at 10 µg/cm2 in the test on Ctenocephalides felis and with Rhipicephalus sanguineus was at least 50% throughout.

For orientation: pest or weed control means how far the test organism was held down. On to `CCS(=O)(=O)c1c(-c2nc3cc(C(F)(F)F)c[n+]([O-])c3n2C)nc2cc(C(F)(F)F)ccn12` [1-14-001a, 2-[3-(ethylsulfonyl)-7-(trifluoromethyl)imidazo[1,2-a]pyridin-2-yl]-3-methyl-6-(trifluoromethyl)-3H-imidazo[4,5-b]pyridine 4-oxide], for which the pest or weed control at 500 ppm in the test on Plutella xylostella [4] is at least 90%. The mortality at 500 ppm in the test with Nilaparvata lugens [1], in the test with Spodoptera litura, in the test on Bemisia argentifolii, with Plutella xylostella [3] and with Myzus persicae was at least 90% in each case. Besides, the mortality at 20 ppm in the test on Nilaparvata lugens [5] was at least 90%. Besides, the mortality at 10 µg/cm2 with Ctenocephalides felis was at least 50%.

`CCS(=O)(=O)c1c(-c2cn3cnc(C(F)(F)F)cc3n2)nc2cc(C(F)(F)F)ccn12` [1-3-001a, 2-[3-(ethylsulfonyl)-7-(trifluoromethyl)imidazo[1,2-a]pyridin-2-yl]-7-(trifluoromethyl)imidazo[1,2-c]pyrimidine] gave a pest or weed control at 500 ppm in the test with Plutella xylostella [4] of at least 90%. Besides, the mortality at 500 ppm in the test with Nilaparvata lugens [1], with Spodoptera litura, in the test on Bemisia argentifolii, with Plutella xylostella [3] and in the test with Myzus persicae was at least 90% in each case. Further, the mortality at 20 ppm in the test on Nilaparvata lugens [5] was at least 90%. In the test on Ctenocephalides felis, this molecule returned a mortality at 10 µg/cm2 of at least 50%.
